Here are results for eleven compounds from the SangsterLogP compilation.

In turn, `CS(=O)(=O)c1nnnn1C1CCCCC1` showed a logP of 2.1.
Regarding `CCCS(=O)(=O)c1nnnn1-c1ccc([N+](=O)[O-])cc1`, the logP came out at 2.7.
To `CCCCCCCCS(=O)c1nnnn1-c1ccc([N+](=O)[O-])cc1` (stereo unspecified) belongs 4.7; to `CS(=O)c1nnnn1-c1ccc([N+](=O)[O-])cc1` (stereo unspecified), 1.4; to `Cc1ccc(-n2nnnc2S(C)(=O)=O)cc1`, 2.5.
For `CCCCCCS(=O)c1nnnn1-c1ccc([N+](=O)[O-])cc1` (stereo unspecified), the logP is 3.5.
Turning to `CN(C)c1ccc(-n2nnnc2S(C)(=O)=O)cc1`, the logP was determined as 2.7.
Take `CCCCCCS(=O)(=O)c1nnnn1-c1ccc([N+](=O)[O-])cc1`: the logP was found to be 4.3.
The compound `CS(=O)(=O)c1nnnn1-c1cccc(C(F)(F)F)c1` showed a lipophilicity (logP) of 2.9.
`CS(=O)(=O)c1nnnn1Cc1ccc([N+](=O)[O-])cc1` registered a logP of 2.1.
As for `CC(=O)Oc1ccc(-n2nnnc2S(C)(=O)=O)cc1`, the log partition coefficient (logP) was 1.6.

As a reminder, the logP is a log measure of how a compound divides between an organic and an aqueous phase. A higher logP goes with higher lipophilicity.
